Key:
LecB = target: T1, LecB (Pseudomonas aeruginosa, UniProt Q9HYN5); test: […] and CPMG NMR screening; assay type: binding; conditions: fucosylated F-glycans as a group
T1 construct: soluble lectin

BambL = target: T2, BambL (Burkholderia ambifaria, UniProt Q0B4G1); test: […] NMR titration (ligand-observed); assay type: binding
T2 construct: gene Bamb_5415; soluble lectin; 15N-labeled for TROSY

β‐galactosidase = test: real-time […] NMR of product formation; assay type: biochemical; conditions: Henry-Michaelis-Menten fit
Pdα26ST = target: T3, Pdα26ST (Photobacterium damselae, UniProt O66375); test: CPMG […] NMR screening; assay type: binding; conditions: without donor CMP-Neu5Ac
T3 construct: gene bst
T3 sequence (O66375 16-675): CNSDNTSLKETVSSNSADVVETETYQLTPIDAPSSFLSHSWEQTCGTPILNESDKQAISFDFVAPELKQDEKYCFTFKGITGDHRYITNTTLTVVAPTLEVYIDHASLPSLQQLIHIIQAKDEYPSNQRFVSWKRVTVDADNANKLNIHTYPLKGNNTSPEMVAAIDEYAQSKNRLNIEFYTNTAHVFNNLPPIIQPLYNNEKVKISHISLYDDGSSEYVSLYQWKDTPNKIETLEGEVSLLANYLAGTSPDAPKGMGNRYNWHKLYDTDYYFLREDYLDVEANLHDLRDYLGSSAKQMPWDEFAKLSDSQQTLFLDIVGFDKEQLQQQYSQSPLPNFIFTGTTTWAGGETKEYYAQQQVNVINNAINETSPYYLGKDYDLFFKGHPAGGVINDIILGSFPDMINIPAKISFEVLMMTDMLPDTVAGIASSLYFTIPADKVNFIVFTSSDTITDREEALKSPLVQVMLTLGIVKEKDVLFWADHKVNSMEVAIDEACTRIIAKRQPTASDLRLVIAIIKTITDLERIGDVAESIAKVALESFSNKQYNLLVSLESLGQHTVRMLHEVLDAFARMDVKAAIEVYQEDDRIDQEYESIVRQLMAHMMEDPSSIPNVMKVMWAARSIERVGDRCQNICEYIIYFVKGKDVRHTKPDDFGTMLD

Pmα23ST = target: T4, Pmα23ST (Pasteurella multocida, UniProt Q15KI8); test: CPMG […] NMR screening; assay type: binding; conditions: without donor; also sialylated with CMP-Neu5Ac
T4 construct: gene Pm0188
T4 sequence (Q15KI8 26-412): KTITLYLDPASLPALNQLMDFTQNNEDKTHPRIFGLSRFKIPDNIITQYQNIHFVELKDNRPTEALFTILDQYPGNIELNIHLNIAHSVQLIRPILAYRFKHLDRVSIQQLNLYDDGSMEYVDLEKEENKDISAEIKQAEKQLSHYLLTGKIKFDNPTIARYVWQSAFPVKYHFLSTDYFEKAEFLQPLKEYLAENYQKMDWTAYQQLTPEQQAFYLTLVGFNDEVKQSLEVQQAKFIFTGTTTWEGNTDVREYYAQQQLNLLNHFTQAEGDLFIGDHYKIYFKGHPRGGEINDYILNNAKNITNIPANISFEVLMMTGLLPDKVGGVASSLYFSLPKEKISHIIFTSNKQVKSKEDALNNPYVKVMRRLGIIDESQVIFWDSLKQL

T2 sequence (Q0B4G1 entry or part of it): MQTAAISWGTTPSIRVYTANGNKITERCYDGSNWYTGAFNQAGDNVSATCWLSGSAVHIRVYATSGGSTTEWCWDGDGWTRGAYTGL
T1 sequence (Q9HYN5 entry or part of it): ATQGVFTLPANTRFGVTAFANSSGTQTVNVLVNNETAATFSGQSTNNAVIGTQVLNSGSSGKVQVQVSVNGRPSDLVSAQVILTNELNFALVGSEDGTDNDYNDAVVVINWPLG

Row | Compound | 19F and CPMG NMR screening (LecB) | Kd (BambL) [µM] | Km (β‐galactosidase) [µM] | CPMG 19F NMR screening (Pdα26ST) | CPMG 19F NMR screening (Pmα23ST)
1 | CC(=O)N[C@H]1[C@H](O[C@H]2[C@@H](O)[C@@H](CO)O[C@@H](O[C@H]3[C@H](F)[C@@H](O)[C@H](OCCCCCN)O[C@@H]3CO)[C@@H]2O)O[C@H](CO)[C@@H](O[C@@H]2O[C@H](CO)[C@H](O)[C@H](O)[C@H]2O[C@@H]2O[C@@H](C)[C@@H](O)[C@@H](O)[C@@H]2O)[C@@H]1O [F‐H type 2] | bacterial (LecA, LecB, and BambL) and mammalian (DC‐SIGN ECD) lectins preferred fucosylated glycans | 9 ± 2 |  |  | 
2 | NCCCCCO[C@@H]1O[C@H](CO)[C@@H](O[C@@H]2O[C@H](CO)[C@H](O)[C@H](O)[C@H]2O)[C@H](F)[C@H]1O [F‐Lac] |  |  | 86.5 ± 10.5 | Shorter non‐branched glycans (F‐Lac and F‐nLac4) showed stronger binding than longer branched ones | 
3 | CC(=O)N[C@H]1[C@H](O[C@H]2[C@@H](O)[C@@H](CO)O[C@@H](O[C@H]3[C@H](F)[C@@H](O)[C@H](OCCCCCN)O[C@@H]3CO)[C@@H]2O)O[C@H](CO)[C@@H](O[C@@H]2O[C@H](CO)[C@H](O)[C@H](O)[C@H]2O[C@@H]2O[C@@H](C)[C@@H](O)[C@@H](O)[C@@H]2O)[C@@H]1O[C@@H]1O[C@@H](C)[C@@H](O)[C@@H](O)[C@@H]1O [F‐Le^y] |  | 14 ± 2 |  |  | 
4 | CC(=O)N[C@H]1[C@H](O[C@H]2[C@@H](O)[C@@H](CO)O[C@@H](O[C@H]3[C@H](F)[C@@H](O)[C@H](OCCCCCN)O[C@@H]3CO)[C@@H]2O)O[C@H](CO)[C@@H](O[C@@H]2O[C@H](CO)[C@H](O)[C@H](O)[C@H]2O)[C@@H]1O [F‐nLac4] |  |  |  | Shorter non‐branched glycans (F‐Lac and F‐nLac4) showed stronger binding than longer branched ones | Shorter non‐branched glycans (F‐Lac and F‐nLac4) showed stronger binding than longer branched ones

Reference: paper PMC8252726, “Automated Glycan Assembly of ^19F‐labeled Glycan Probes Enables High‐Throughput NMR Studies of Protein–Glycan Interactions” (Angewandte Chemie (International Ed. in English), 2021)
